According to patent US20230132823A1, “BI-FUNCTIONAL COMPOUNDS AND METHODS FOR TARGETED UBIQUITINATION OF ANDROGEN RECEPTOR” (MONTELINO THERAPEUTICS, INC., priority 2020, published 2023):

Test system: progesterone receptor (PR) a and b
Assay: Immunoblot of PR in 22Rv1 cells
Type: cell-based, human
Conditions: 22Rv1, 24 hours, up to 10 μM
Method: Cell Culture. Human CaP cell lines, LNCaP, 22Rv1, VCaP, PC3, and DU145 are obtained from the American Type Culture Collection (ATCC) and maintained in the standard culture media: RPMI-1640 supplemented with 10% fetal bovine serum (FBS). LNCaP, 22Rv1, and VCaP are androgen-responsive cell lines, while PC3 and DU145 are not. To establish SAT resistant CaP cell lines, LNCaP, 22Rv1, and VCaP are treated continuously with 10-50 μM abiraterone, apalutamide, darolutamide, or enzalutamide. After 3-6 months, stable cell lines are established and designated as LNCaP-Abi^R, LNCaP-Apa^R, LNCaP-Daro^R, LNCaP-Enz^R, VCaP-Abi^R, VCaP-Apa^R, VCaP-Daro^R, VCaP-Enz^R, 22Rv1-Abi^R, 22Rv1-Apa^R, 22Rv1-Daro^R and 22Rv1-Enz^R. Unless otherwise specified, the standard culture media for these SAT-resistant cell lines included 10 μM of their respective SAT. For the proteasome inhibitor study, the inhibitors MG132 and Epoxomicin are used. The E3 ligase inhibitors Heclin, Nutlin 3a, Thalidomide, and VH298 are used. […] Mycoplasma contamination is also assessed using a PCR based detection system.
Immunoblot Analysis. […] Cell lysates are then centrifuged and protein in the supernatant is quantified. […] Following the incubation with appropriate secondary antibody, immunoblots are analyzed using SuperSignal West Femto Maximum Sensitivity Substrate (ThermoFisher).

## Cc1ncsc1-c1ccc([C@H](C)NC(=O)[C@@H]2C[C@@H](O)CN2C(=O)[C@@H](NC(=O)CCCCNC(=O)COc2c(-c3csc(N4CCOCC4)n3)ccc(F)c2F)C(C)(C)C)cc1 [Example 16, (2S,4R)-1-((S)-2-(5-(2-(2,3-difluoro-6-(2-morpholinothiazol-4-yl)phenoxy)acetamido)pentanamido)-3,3-dimethylbutanoyl)-4-hydroxy-N-((S)-1-(4-(4-methylthiazol-5-yl)phenyl)ethyl)pyrrolidine-2-carboxamide]
  effect on expression level of progesterone receptor (PR) a and b: no visible effect
